Measurements published in US9145351B2, “Azole derivatives, methods for producing the same, intermediate thereof, agro-horticultural agents” (KUREHA CORPORATION, priority 2009, dated 2015).

What was measured:
Botrytis cinerea = test: Efficacy test against cucumber gray mold (Experimental Example 1); format: in vivo; details: 96 h, four days after inoculation, read-out: Protective value; for pest or weed control at 50 µg/mL: 50 mg/L sprayed at 1,000 L/ha; for pest or weed control at 100 µg/mL: 100 mg/L sprayed at 1,000 L/ha
Method: Onto a cucumber (variety:SHARP1) plant in its cotyledon phase grown using a square plastic pot (6 cm×6 cm), a wettable formulation such as Formulation Example 1 which was diluted and suspended in water at a certain concentrations (100 mg/L and 50 mg/L) was sprayed at a rate of 1,000 L/ha. The sprayed leaves were air-dried, and loaded with a paper disc (8 mm in diameter) soaked in a spore suspension of Botrytis cinerea, and kept at 20 degrees C. and a high humidity. Four days after inoculation, the cucumber gray mold lesion degree was investigated, and the protective value was calculated by the following equation. Protective value (%)=(1−mean lesion degree in sprayed plot/mean lesion degree in unsprayed plot)×100

Puccinia recondita [1] = test: Efficacy test against wheat brown rust, 100 mg/L and 10 mg/L (Experimental Example 2); format: in vivo; details: nine to 14 days after inoculation; for efficacy compared with compound (1): 10 mg/L sprayed at 1,000 L/ha; for pest or weed control at 100 µg/mL: Puccinia recondita, 336 h, 100 mg/L sprayed at 1,000 L/ha, read-out: Protective value
Method: Onto a wheat plant (variety: NORIN No. 61) grown to the two-leaf phase using a square plastic pot (6 cm×6 cm), a wettable formulation such as Formulation Example 1 which was diluted and suspended in water at a certain concentration (100 mg/L and 10 mg/L) was sprayed at a rate of 1,000 L/ha. The sprayed leaves were air-dried, and inoculated with spore suspension of Puccinia recondita (adjusted at 200 spores/vision, […] was added at 60 ppm) by spraying, and kept at 25 degrees C. and a high humidity for 48 hours. Thereafter, the plant was kept in a greenhouse. Nine to 14 days after inoculation, the wheat brown rust lesion degree was investigated, and the protective value was calculated by the following equation. Protective value (%)=(1-lesion degree in sprayed plot/lesion degree in unsprayed plot)×100

Septoria tritici [2] = test: Microplate test of biocidal effect on wheat Septoria blotch (Experimental Example 4); format: cell-based; details: Zymoseptoria tritici, 240 h; % mycelium growth inhibition, absorbance 550 nm, 20 degrees C. for about 10 days; read-out: activity level (EC80)
Method: A spore suspension of wheat Septoria blotch (Septoria tritici) (spore concentration: 1×10^6 cells/ml) was prepared, and subjected to 100-fold dilution with a PD medium. A flat 96-well microplate was provided and 1 microliter of the test compound solution formed by dissolution in dimethyl sulfoxide (DMSO) at a concentration 100 times the test concentration was dispensed to the microplate, and then 100 microliter of the medium containing the spore was added and stirred thoroughly. […] R=100×(dc−dt)/dc: R: % mycelium growth inhibition dc: Absorbance of non-treatment zone dt: Absorbance of treatment zone

Aspergillus sp. = test: Plate medium assay, industrial material deteriorating microorganism, Aspergillus (Experimental Example 5); format: cell-based; details: treatment at 50 mg/l, PDA plate medium, read-out: growth inhibition grade
Method: (§1) In this Experimental Example, the fungicidal effects of the inventive compounds on various phytopathogenic fungi for plants and hazardous microorganism for industrial materials were examined by the methods described below. Each inventive compound was dissolved in 2 ml of dimethyl sulfoxide. 0.6 ml of this solution was added to 60 nil of a PDA medium (potato dextrose agar medium) at about 60 degrees C., which was mixed thoroughly in a 100-ml conical flask, and poured into a dish, where it was solidified, thereby obtaining a plate medium containing the inventive compound at 50 mg/L and 5 mg/L. On the other hand, a subject microorganism previously cultured on a plate medium was cut out using a cork borer whose diameter was 4 mm, and inoculated to the test compound-containing plate medium described above. […] The growth degree of the microorganism on the test compound-containing plate medium thus observed was compared with the growth degree of the microorganism in the untreated group, and % mycelial growth inhibition was calculated by the following equation. R=100(dc-dt)/dc wherein R=% mycelial extension inhibition, dc=flora diameter in untreated plate, dt=flora diameter in treated plate. The results obtained as described above were evaluated as one of the 5 grades according to the following criteria.

Mucor sp. = test: Plate medium assay, industrial material deteriorating microorganism, Mucor (Experimental Example 5); format: cell-based; details: treatment at 50 mg/l, PDA plate medium, read-out: growth inhibition grade
Method: as §1

Aureobasidium sp. = test: Plate medium assay, industrial material deteriorating microorganism, Aureobasidium (Experimental Example 5); format: cell-based; details: treatment at 50 mg/l, PDA plate medium, read-out: growth inhibition grade
Method: as §1

Curvularia sp. = test: Plate medium assay, industrial material deteriorating microorganism, Curvularia (Experimental Example 5); format: cell-based; details: treatment at 50 mg/l, PDA plate medium, read-out: growth inhibition grade
Method: as §1

Tyromyces palustris = test: Plate medium assay, wood denaturing microorganism Oouzuratake (Experimental Example 5); format: cell-based; details: treatment at 50 mg/l, PDA plate medium; read-out: growth inhibition grade
Method: as §1

Coriolus versicolor = test: Plate medium assay, wood denaturing microorganism Kawaratake (Experimental Example 5); format: cell-based; details: Trametes versicolor; treatment at 50 mg/l, PDA plate medium; read-out: growth inhibition grade
Method: as §1

Septoria tritici [3] = test: Assay for fungicidal effect on Septoria tritici, plate medium 1.25 mg/L (Experimental Example 9); format: cell-based; details: Zymoseptoria tritici, read-out: growth inhibition grade
Method: as §1, with “Each” for “In this Experimental Example, the fungicidal effects of the inventive compounds on various phytopathogenic fungi for plants and hazardous microorganism for industrial materials were examined by the methods described below. Each”, “R=100(dc−dt)/dc” for “R=100(dc-dt)/dc”, “criteria. […] In this Experimental Example, the fungicidal effects of the inventive compounds on Septoria tritici were examined by the methods described in the Experimental Example 5. In this Experimental Example, the inventive compounds were diluted at 1.25 mg/L.” for “criteria.”

Puccinia recondita [4] = test: Efficacy test against wheat brown rust, 1 mg/L (Experimental Example 10); format: in vivo; details: 1 g/ha (1 mg/L sprayed at 1,000 L/ha)
Septoria tritici [5] = test: Assay for fungicidal effect on Septoria tritici, plate medium 0.02 mg/L (Experimental Example 7); format: cell-based; details: Zymoseptoria tritici, read-out: grade (growth inhibition grade)
Text: In this Experimental Example, the fungicidal effects of the inventive compounds on a phytopathogenic fungi, Septoria tritici were examined and compared to the Comparative Compound (3) described in Patent Literature 1 (JPA01-93574) by the methods described below. […] The subject microorganism previously cultured on a plate medium was cut out using a cork borer whose diameter was 4 mm, and inoculated to the test compound-containing plate medium described above. […] The growth degree of the microorganism on the test compound-containing plate medium thus observed was compared with the growth degree of the microorganism in the untreated group, and % mycelial growth inhibition was calculated by the following equation. R=100(dc−dt)/dc wherein R=% mycelial extension inhibition, dc=flora diameter in untreated plate, dt=flora diameter in treated plate. The results obtained as described above were evaluated as one of the 5 grades according to the following criteria. <Growth Inhibition Grade> […]

## C[C@]1(CCl)CC[C@@H](Cc2ccc(Cl)cc2)[C@]1(O)Cn1cncn1 (racemic) [Compound I-1, (1RS,2SR,5SR)-5-(4-chlorobenzyl)-2-chloromethyl-2-methyl-1-(1H-1,2,4-triazol-1-ylmethyl)cyclopentanol]
Botrytis cinerea
  pest or weed control at 50 µg/mL: ≥ 80%
  pest or weed control at 100 µg/mL: ≥ 80%
Puccinia recondita [1]
  efficacy compared with compound (1): higher efficacy than that of compound (1)
  pest or weed control at 100 µg/mL: ≥ 90%
Septoria tritici [2]
  EC80: ≤ 0.2 µg/mL
Aspergillus sp.
  inhibition at 50 µg/mL: 60 to 80%
Mucor sp.
  inhibition at 50 µg/mL: 60 to 80%
Aureobasidium sp.
  inhibition at 50 µg/mL: 60 to 80%
Curvularia sp.
  inhibition at 50 µg/mL: 60 to 80%
Tyromyces palustris
  inhibition at 50 µg/mL: 60 to 80%
Coriolus versicolor
  inhibition at 50 µg/mL: 60 to 80%
Septoria tritici [3]
  inhibition at 1.25 µg/mL: > 80%
Puccinia recondita [4]
  lesion degree: 0.5 (Less than 1%)

## C[C@]1(CCl)CC[C@@H](Cc2ccc(F)cc2)[C@]1(O)Cn1cncn1 (racemic) [Compound I-77, (1RS,2SR,5SR)-2-chloromethyl-5-(4-fluorobenzyl)-2-methyl-1-(1H-1,2,4-triazol-1-ylmethyl)cyclopentanol]
Botrytis cinerea
  pest or weed control at 50 µg/mL: ≥ 80%
  pest or weed control at 100 µg/mL: ≥ 80%
Puccinia recondita [1]
  efficacy compared with compound (1): higher efficacy than that of compound (1)
  pest or weed control at 100 µg/mL: ≥ 90%
Septoria tritici [2]
  EC80: ≤ 0.2 µg/mL
Aspergillus sp.
  inhibition at 50 µg/mL: 60 to 80%
Mucor sp.
  inhibition at 50 µg/mL: 60 to 80%
Aureobasidium sp.
  inhibition at 50 µg/mL: 60 to 80%
Curvularia sp.
  inhibition at 50 µg/mL: 60 to 80%
Tyromyces palustris
  inhibition at 50 µg/mL: 60 to 80%
Coriolus versicolor
  inhibition at 50 µg/mL: 60 to 80%
Septoria tritici [5]
  inhibition at 0.02 µg/mL: > 80%
Septoria tritici [3]
  inhibition at 1.25 µg/mL: > 80%
Puccinia recondita [4]
  lesion degree: 0.5 (Less than 1%)

## C[C@]1(CCl)CC[C@@H](Cc2ccccc2)[C@]1(O)Cn1cncn1 (racemic) [Compound I-73, (1RS,2SR,5SR)-2-chloromethyl-5-benzyl-2-methyl-1-(1H-1,2,4-triazol-1-ylmethyl)cyclopentanol]
Botrytis cinerea
  pest or weed control at 50 µg/mL: ≥ 80%
  pest or weed control at 100 µg/mL: ≥ 80%
Puccinia recondita [1]
  efficacy compared with compound (1): higher efficacy than that of compound (1)
  pest or weed control at 100 µg/mL: ≥ 90%
Septoria tritici [2]
  EC80: ≤ 0.2 µg/mL
Aspergillus sp.
  inhibition at 50 µg/mL: 60 to 80%
Mucor sp.
  inhibition at 50 µg/mL: 60 to 80%
Aureobasidium sp.
  inhibition at 50 µg/mL: 60 to 80%
Curvularia sp.
  inhibition at 50 µg/mL: 60 to 80%
Tyromyces palustris
  inhibition at 50 µg/mL: 60 to 80%
Coriolus versicolor
  inhibition at 50 µg/mL: 60 to 80%
Septoria tritici [5]
  inhibition at 0.02 µg/mL: > 80%
Septoria tritici [3]
  inhibition at 1.25 µg/mL: > 80%
Puccinia recondita [4]
  lesion degree: 0.5 (Less than 1%)
